From patent EP4800013A1, “PARG INHIBITOR” (Shanghai Qilu Pharmaceutical Research and Development …, priority 2023, dated 2025)

How the values were obtained:
KURAMOCHI cells = experiment: Inhibition of proliferation of KURAMOCHI cells (CellTiter-Glo, intracellular ATP); assay type: cell-based; conditions: 168 h, incubated for 7 days, read-out: IC50 against KURAMOCHI cells
Procedure, shortened: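 KURAMOCHI cells seeded at 4000/well, incubated overnight, then treated with 9-point 1:4 compound series from 10 µM (0.5% DMSO) for 7 days at 37°C, 5% CO2. Viability read by CellTiter-Glo luminescence; inhibition normalised to medium-only (100%) and DMSO (0%) controls, IC50 from variable-slope four-parameter fit.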

[1] = Pharmacokinetic evaluation in BALB/c nude mice (PO); assay type: in vivo; conditions: female, mouse, plasma, 30 mg/kg
Protocol: Using mice as test animals, the compounds of the present disclosure were administered via intravenous bolus and oral injection. Plasma samples were collected at specific time points. Compound concentrations in plasma were determined by LC-MS/MS, and PK parameters were calculated to characterize the pharmacokinetic behavior of the compounds of the present disclosure in plasma.
BALB/c nude mice, female, supplied by Jiangsu GemPharmatech Co., Ltd.
Dosing regimen for BALB/c nude mice: The PO (oral) experimental group consisted of 3 mice, which were administered at a dose of 30 mg/kg and a volume of 10 mL/kg. The dosing vehicle was 5% (v/v) DMSO/10% (v/v) Solutol/85% (v/v) saline.
Following administration, 0.025 mL of blood was collected via venipuncture at the following time points: 0.0833 (IV), 0.25, 0.5, 1, 2, 4, 8, and 24 hours. Blood samples were collected into EDTA-K2 tubes and centrifuged at 4°C and 2000 g for 10 minutes to separate plasma, which was stored at -80°C.
Mouse plasma processing: • 1) 15 µL of plasma was mixed with 200 µL of acetonitrile for protein precipitation. The mixture was vortexed and centrifuged for 15 minutes. • 2) The supernatant after processing was diluted with water and analyzed by LC/MS/MS to determine the concentration of the test compound.
Pharmacokinetic parameters were calculated using WinNonlin 6.1. Specifically, Cmax represents maximum plasma concentration, CL represents clearance, Vss represents volume of distribution at steady state, T1/2 represents terminal elimination half-life, MRTInf represents mean residence time, AUC represents area under the plasma concentration-time curve, and F represents bioavailability. Table 18: Pharmacokinetic parameters of the compounds of the present disclosure in CD-1 mice

Row | Compound | IC50 (KURAMOCHI cells) | AUC [1] | Cmax [1] | MRT inf [1] | half-life [1]
1 | CCc1nc2n(-c3nnc(C(F)F)s3)c3cc(S(=O)(=O)NC4(C)CC4)cc(N4C[C@H](C)N[C@@H](C)C4)c3n2n1 [Compound 065R] | 2 nM | 9.52 µM·h | 1620 nM | 4.39 h | 2.62 h
2 | C[C@H]1CN(c2cc(S(=O)(=O)NC3(C)CC3)cc3c2n2nc(C(F)F)nc2n3-c2nnc(C(F)F)s2)C[C@H](C)N1 [Compound 065S] | 2 nM | 9.21 µM·h | 1340 nM | 4.8 h | 2.69 h
3 | C[C@H]1CN(c2cc(S(=O)(=O)NC3(C)CC3)cc3c2n2nc(C(F)(F)F)nc2n3-c2nnc(C(F)F)s2)C[C@H](C)N1 [Compound 065W] | 4 nM | 16.4 µM·h | 1340 nM | 7.74 h | 5.28 h
